Patent US12077503B2, “Substituted cyclic amides and their use as herbicides” (FMC CORPORATION, priority 2015, dated 2024)

Tests used:
Format in all cases: in vivo
[1] = system: barnyardgrass (Echinochloa crus-galli); experiment: Test G Pre-Emergence Protocol; details: Echinochloa crus-galli, pre-emergence, 312 h, evaluated after 13 days; for pest or weed control at 15.625 g/ha: 15.625 g ai/ha; for pest or weed control at 15.625 g/ha / pest or weed control at 250 g/ha: read-out: Barnyardgrass damage rating (100=total damage to plant; 0=no damage to plant); for pest or weed control at 62.5 g/ha: 62.5 g ai/ha, 100=total damage to plant, 0=no damage to plant, read-out: Barnyardgrass damage rating; for pest or weed control at 250 g/ha: 250 g ai/ha
Procedure, shortened: (§1)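 Herbicidal effect was rated 13 days post-application on a scale where 100 equals total damage. Spraying took place the day after sowing, using 15.625, 62.5 or 250 g/ha of compound in a 50:50 acetone/water solution with 0.5% Tween 20.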

corn (Zea mays) [2] = experiment: Test G Pre-Emergence Protocol; details: Zea mays, pre-emergence, 312 h, evaluated after 13 days; for plant injury at 15.625 g/ha: 15.625 g ai/ha; for plant injury at 15.625 g/ha / plant injury at 250 g/ha: read-out: Corn damage rating (100=total damage to plant; 0=no damage to plant); for plant injury at 62.5 g/ha: 62.5 g ai/ha, 100=total damage to plant, 0=no damage to plant, read-out: Corn damage rating; for plant injury at 250 g/ha: 250 g ai/ha
Procedure, shortened: as §1

[3] = system: giant foxtail (Setaria faberi); experiment: Test G Pre-Emergence Protocol; details: Setaria faberi, pre-emergence, 312 h, evaluated after 13 days; for pest or weed control at 15.625 g/ha: 15.625 g ai/ha; for pest or weed control at 15.625 g/ha / pest or weed control at 250 g/ha: read-out: Foxtail, Giant damage rating (100=total damage to plant; 0=no damage to plant); for pest or weed control at 62.5 g/ha: 62.5 g ai/ha, 100=total damage to plant, 0=no damage to plant, read-out: Foxtail, Giant damage rating; for pest or weed control at 250 g/ha: 250 g ai/ha
Procedure, shortened: as §1

[4] = system: ivy-leaved morning glory (Ipomoea hederacea); experiment: Test G Pre-Emergence Protocol; details: Ipomoea, pre-emergence, 312 h, evaluated after 13 days; for pest or weed control at 15.625 g/ha: 15.625 g ai/ha; for pest or weed control at 15.625 g/ha / pest or weed control at 250 g/ha: read-out: Morningglory, Ivy-leaved damage rating (100=total damage to plant; 0=no damage to plant); for pest or weed control at 62.5 g/ha: 62.5 g ai/ha, 100=total damage to plant, 0=no damage to plant, read-out: Morningglory, Ivy-leaved damage rating; for pest or weed control at 250 g/ha: 250 g ai/ha
Procedure, shortened: as §1

[5] = system: redroot pigweed (Amaranthus retroflexus); experiment: Test G Pre-Emergence Protocol; details: Amaranthus retroflexus, pre-emergence, 312 h, evaluated after 13 days; for pest or weed control at 15.625 g/ha: 15.625 g ai/ha; for pest or weed control at 15.625 g/ha / pest or weed control at 250 g/ha: read-out: Pigweed, Redroot damage rating (100=total damage to plant; 0=no damage to plant); for pest or weed control at 62.5 g/ha: 62.5 g ai/ha, 100=total damage to plant, 0=no damage to plant, read-out: Pigweed, Redroot damage rating; for pest or weed control at 250 g/ha: 250 g ai/ha
Procedure, shortened: as §1

[6] = system: velvetleaf (Abutilon theophrasti); experiment: Test G Pre-Emergence Protocol; details: Abutilon theophrasti, pre-emergence, 312 h, evaluated after 13 days; for pest or weed control at 15.625 g/ha: 15.625 g ai/ha; for pest or weed control at 15.625 g/ha / pest or weed control at 250 g/ha: read-out: Velvetleaf damage rating (100=total damage to plant; 0=no damage to plant); for pest or weed control at 62.5 g/ha: 62.5 g ai/ha, 100=total damage to plant, 0=no damage to plant, read-out: Velvetleaf damage rating; for pest or weed control at 250 g/ha: 250 g ai/ha
Procedure, shortened: as §1

[7] = system: barnyardgrass (Echinochloa crus-galli); experiment: Test G Post-Emergence Protocol; details: Echinochloa crus-galli, post-emergence, 312 h, read-out: Barnyardgrass damage rating; for pest or weed control at 15.625 g/ha: 15.625 g ai/ha, evaluated after 13 days (100=total damage to plant; 0=no damage to plant); for pest or weed control at 62.5 g/ha: 62.5 g ai/ha; for pest or weed control at 62.5 g/ha / pest or weed control at 250 g/ha: evaluated after 13 days, 100=total damage to plant, 0=no damage to plant; for pest or weed control at 250 g/ha: 250 g ai/ha
Procedure, shortened: (§2)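 Damage was rated 13 days after treatment from 0 (none) to 100 (plant killed). Compound was applied as a spray at 15.625, 62.5 or 250 g/ha in 50:50 acetone/water containing 0.5% Tween 20, onto 8-day-old potted plants kept in a glasshouse (24/16 °C, 14 h light, 65% humidity).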

corn (Zea mays) [8] = experiment: Test G Post-Emergence Protocol; details: Zea mays, post-emergence, 312 h, read-out: Corn damage rating; for plant injury at 15.625 g/ha: 15.625 g ai/ha, evaluated after 13 days (100=total damage to plant; 0=no damage to plant); for plant injury at 62.5 g/ha: 62.5 g ai/ha; for plant injury at 62.5 g/ha / plant injury at 250 g/ha: evaluated after 13 days, 100=total damage to plant, 0=no damage to plant; for plant injury at 250 g/ha: 250 g ai/ha
Procedure, shortened: as §2

[9] = system: giant foxtail (Setaria faberi); experiment: Test G Post-Emergence Protocol; details: Setaria faberi, post-emergence, 312 h, read-out: Foxtail, Giant damage rating; for pest or weed control at 15.625 g/ha: 15.625 g ai/ha, evaluated after 13 days (100=total damage to plant; 0=no damage to plant); for pest or weed control at 62.5 g/ha: 62.5 g ai/ha; for pest or weed control at 62.5 g/ha / pest or weed control at 250 g/ha: evaluated after 13 days, 100=total damage to plant, 0=no damage to plant; for pest or weed control at 250 g/ha: 250 g ai/ha
Procedure, shortened: as §2

[10] = system: ivy-leaved morning glory (Ipomoea hederacea); experiment: Test G Post-Emergence Protocol; details: Ipomoea, post-emergence, 312 h, read-out: Morningglory, Ivy-leaved damage rating; for pest or weed control at 15.625 g/ha: 15.625 g ai/ha, evaluated after 13 days (100=total damage to plant; 0=no damage to plant); for pest or weed control at 62.5 g/ha: 62.5 g ai/ha; for pest or weed control at 62.5 g/ha / pest or weed control at 250 g/ha: evaluated after 13 days, 100=total damage to plant, 0=no damage to plant; for pest or weed control at 250 g/ha: 250 g ai/ha
Procedure, shortened: as §2

[11] = system: redroot pigweed (Amaranthus retroflexus); experiment: Test G Post-Emergence Protocol; details: Amaranthus retroflexus, post-emergence, 312 h, read-out: Pigweed, Redroot damage rating; for pest or weed control at 15.625 g/ha: 15.625 g ai/ha, evaluated after 13 days (100=total damage to plant; 0=no damage to plant); for pest or weed control at 62.5 g/ha: 62.5 g ai/ha; for pest or weed control at 62.5 g/ha / pest or weed control at 250 g/ha: evaluated after 13 days, 100=total damage to plant, 0=no damage to plant; for pest or weed control at 250 g/ha: 250 g ai/ha
Procedure, shortened: as §2

[12] = system: velvetleaf (Abutilon theophrasti); experiment: Test G Post-Emergence Protocol; details: Abutilon theophrasti, post-emergence, 312 h, read-out: Velvetleaf damage rating; for pest or weed control at 15.625 g/ha: 15.625 g ai/ha, evaluated after 13 days (100=total damage to plant; 0=no damage to plant); for pest or weed control at 62.5 g/ha: 62.5 g ai/ha; for pest or weed control at 62.5 g/ha / pest or weed control at 250 g/ha: evaluated after 13 days, 100=total damage to plant, 0=no damage to plant; for pest or weed control at 250 g/ha: 250 g ai/ha
Procedure, shortened: as §2

CN1C[C@H](c2ccc(C(F)(F)F)cc2)[C@@H](C(=O)Nc2ccc(C(F)(F)F)cn2)C1=O (racemic) [Compound 1672]
pest or weed control at 15.625 g/ha [1]: 0% | pest or weed control at 62.5 g/ha [1]: 0% | pest or weed control at 250 g/ha [1]: 0% | plant injury at 15.625 g/ha (corn (Zea mays) [2]): 0% | plant injury at 62.5 g/ha (corn (Zea mays) [2]): 0% | plant injury at 250 g/ha (corn (Zea mays) [2]): 0% | pest or weed control at 15.625 g/ha [3]: 0% | pest or weed control at 62.5 g/ha [3]: 0% | pest or weed control at 250 g/ha [3]: 0% | pest or weed control at 15.625 g/ha [4]: 0% | pest or weed control at 62.5 g/ha [4]: 0% | pest or weed control at 250 g/ha [4]: 0% | pest or weed control at 15.625 g/ha [5]: 0% | pest or weed control at 62.5 g/ha [5]: 0% | pest or weed control at 250 g/ha [5]: 0% | pest or weed control at 15.625 g/ha [6]: 0% | pest or weed control at 62.5 g/ha [6]: 0% | pest or weed control at 250 g/ha [6]: 0% | pest or weed control at 15.625 g/ha [7]: 0% | pest or weed control at 62.5 g/ha [7]: 0% | pest or weed control at 250 g/ha [7]: 0% | plant injury at 15.625 g/ha (corn (Zea mays) [8]): 0% | plant injury at 62.5 g/ha (corn (Zea mays) [8]): 0% | plant injury at 250 g/ha (corn (Zea mays) [8]): 10% | pest or weed control at 15.625 g/ha [9]: 0% | pest or weed control at 62.5 g/ha [9]: 0% | pest or weed control at 250 g/ha [9]: 0% | pest or weed control at 15.625 g/ha [10]: 0% | pest or weed control at 62.5 g/ha [10]: 0% | pest or weed control at 250 g/ha [10]: 0% | pest or weed control at 15.625 g/ha [11]: 0% | pest or weed control at 62.5 g/ha [11]: 30% | pest or weed control at 250 g/ha [11]: 40% | pest or weed control at 15.625 g/ha [12]: 0% | pest or weed control at 62.5 g/ha [12]: 0% | pest or weed control at 250 g/ha [12]: 0%

CN1C[C@H](c2cccc(C(F)(F)F)c2)[C@@H](C(=O)Nc2cnccc2C#N)C1=O (racemic) [Compound 1761]
pest or weed control at 15.625 g/ha [1]: 0% | pest or weed control at 62.5 g/ha [1]: 30% | pest or weed control at 250 g/ha [1]: 70% | plant injury at 15.625 g/ha (corn (Zea mays) [2]): 0% | plant injury at 62.5 g/ha (corn (Zea mays) [2]): 0% | plant injury at 250 g/ha (corn (Zea mays) [2]): 0% | pest or weed control at 15.625 g/ha [3]: 0% | pest or weed control at 62.5 g/ha [3]: 40% | pest or weed control at 250 g/ha [3]: 70% | pest or weed control at 15.625 g/ha [4]: 0% | pest or weed control at 62.5 g/ha [4]: 0% | pest or weed control at 250 g/ha [4]: 0% | pest or weed control at 15.625 g/ha [5]: 0% | pest or weed control at 62.5 g/ha [5]: 0% | pest or weed control at 250 g/ha [5]: 0% | pest or weed control at 15.625 g/ha [6]: 0% | pest or weed control at 62.5 g/ha [6]: 0% | pest or weed control at 250 g/ha [6]: 0% | pest or weed control at 15.625 g/ha [7]: 0% | pest or weed control at 62.5 g/ha [7]: 0% | pest or weed control at 250 g/ha [7]: 70% | plant injury at 15.625 g/ha (corn (Zea mays) [8]): 0% | plant injury at 62.5 g/ha (corn (Zea mays) [8]): 0% | plant injury at 250 g/ha (corn (Zea mays) [8]): 0% | pest or weed control at 15.625 g/ha [9]: 0% | pest or weed control at 62.5 g/ha [9]: 0% | pest or weed control at 250 g/ha [9]: 70% | pest or weed control at 15.625 g/ha [10]: 0% | pest or weed control at 62.5 g/ha [10]: 40% | pest or weed control at 250 g/ha [10]: 50% | pest or weed control at 15.625 g/ha [11]: 0% | pest or weed control at 62.5 g/ha [11]: 0% | pest or weed control at 250 g/ha [11]: 10% | pest or weed control at 15.625 g/ha [12]: 0% | pest or weed control at 62.5 g/ha [12]: 0% | pest or weed control at 250 g/ha [12]: 10%
